From article PMC6311893, “Computational prediction of plasma protein binding of cyclic peptides from small molecule experimental data using sparse modeling techniques” (BMC Bioinformatics, 2018)
Positions of bridges follow the written chain, without caps; N, C: chain ends. Residues, ends and D or L forms follow the SMILES beside them.

tested on: not listed separately; assay: in vitro; assay type: in vitro ADME; settings: human, plasma, Exp. PPB (fb*)
Protocol: As the number of publicly available data of cyclic peptide drugs is small compared to that of small molecule, we additionally designed and experimented with 16 cyclic peptides composed exclusively of natural amino acids. First, linear peptides were synthesized. Then, circularization was achieved by making a disulfide bond between N-terminal and C-terminal cysteine residues and confirmed by TOF/MS and HPLC analyses. Human PPB values fb were determined by the equilibrium dialysis method. Frozen human plasma was thawed immediately at room temperature. Then, the plasma was centrifuged at 3220 g for 10 min to remove clots and the supernatant was collected into a fresh tube. The working solutions of test compounds were prepared in DMSO at a concentration of 200 μM. Then, 3 μL of the working solution was removed for mixing with 597 μL of human plasma to achieve a final concentration of 1 μM (0.5% DMSO). The plasma samples were vortexed thoroughly. The dialysis membranes (HTD 96a/b Dialysis Membrane Strips MWCO 12-14 K, Cat. #1101, Batch# 1141 (12–17)) were soaked in ultrapure water for 60 min to separate the strips, then in 20% ethanol for 20 min, and finally in the dialysis buffer (100 mM sodium phosphate and 150 mM NaCl) for 20 min. The dialysis apparatus was assembled according to the manufacturer’s instructions. Each cell was filled with the spiked plasma sample and dialyzed against equal volume of the dialysis buffer. The assay was performed in duplicate. The dialysis plate was sealed and incubated in an incubator at 37 °C with 5% CO2 at 100 rpm for 6 h. At the end of incubation, the seal was removed and 50 μL of samples from both buffer and plasma chambers were transferred to wells of a 96-well plate. 50 μL of blank plasma was added to each buffer sample and an equal volume of phosphate buffered saline was supplemented to the collected plasma sample. […] Samples in the plate were vortexed for 5 min and centrifuged at 3220 g for 30 min at 4 °C. Then, the supernatant was transferred to a new 96-well plate with 100 μL or 200 μL water (depending on the LC-MS signal response and peak shape) for LC-MS/MS analysis.

| Compound | fraction unbound at 6 h, 1 μM |
| --- | --- |
| CC(C)C[C@@H]1NC(=O)CNC(=O)[C@H](C)NC(=O)[C@@H](N)CSSC[C@@H](C(=O)O)NC(=O)[C@H](C)NC(=O)[C@H](C)NC(=O)[C@H](CC(C)C)NC(=O)[C@H](C(C)C)NC1=O [Pep.9] (H-CAGLVLAAC-OH; disulfide 1-9; N-terminus and C-terminus assumed) | 1 |
| CC(C)[C@@H]1NC(=O)[C@H](CCCCN)NC(=O)[C@H](Cc2c[nH]c3ccccc23)NC(=O)[C@H](C)NC(=O)[C@@H](N)CSSC[C@@H](C(=O)O)NC(=O)[C@H]([C@@H](C)O)NC1=O [Pep.3] (H-CAWKVTC-OH; disulfide 1-7; N-terminus and C-terminus assumed) | 1 |
| NCCCC[C@@H]1NC(=O)[C@H](Cc2c[nH]c3ccccc23)NC(=O)[C@H](Cc2ccccc2)NC(=O)[C@@H]2CCCN2C(=O)[C@H](Cc2ccccc2)NC(=O)[C@@H](N)CSSC[C@@H](C(=O)O)NC(=O)[C@H](Cc2ccc(O)cc2)NC1=O [Pep.4] (H-CFPFWKYC-OH; disulfide 1-8; N-terminus and C-terminus assumed) | 0.384 |
| N[C@H]1CSSC[C@@H](C(=O)O)NC(=O)[C@H](Cc2ccc(O)cc2)NC(=O)[C@H](Cc2ccc(O)cc2)NC(=O)[C@H](Cc2ccc(O)cc2)NC(=O)[C@H](Cc2ccc(O)cc2)NC(=O)[C@H](Cc2ccc(O)cc2)NC(=O)[C@H](Cc2ccc(O)cc2)NC(=O)[C@H](Cc2ccc(O)cc2)NC1=O [Pep.8] (H-CYYYYYYYC-OH; disulfide 1-9; N-terminus and C-terminus assumed) | 0.145 |
| CC(C)C[C@@H]1NC(=O)[C@H](Cc2ccc(O)cc2)NC(=O)[C@@H](N)CSSC[C@@H](C(=O)O)NC(=O)CNC(=O)[C@H](Cc2c[nH]cn2)NC(=O)[C@H](Cc2ccc(O)cc2)NC(=O)[C@H](CCC(=O)O)NC(=O)[C@H](C)NC1=O [Pep.13] (H-CYLAEYHGC-OH; disulfide 1-9; N-terminus and C-terminus assumed) | 0.651 |

tested on: plasma protein; assay: not given; settings: fraction bound to plasma protein; small molecule dataset, sheet 1-SM (Set Dte = test, Dtr = training); ref Ingle et al.; cited from earlier work

| Compound | PPB (fb) |
| --- | --- |
| C[C@@H]([C@@H](O)c1ccc(O)cc1)N1CCC(O)(c2ccccc2)CC1 [Traxoprodil] | 0.37 |
| CC(N/C(=N\C#N)Nc1ccncc1)C(C)(C)C (centres unmarked) [pinacidil] | 0.4 |
| CN(C)CC/C=C1/c2ccccc2Sc2ccc(Cl)cc21 [chlorprothixene] | 0.99 |
| NCCC(O)(P(=O)(O)O)P(=O)(O)O [pamidronic acid] | 0.14 |
| CCN(CC)CCCN(c1ccccc1)C1Cc2ccccc2C1 [aprindine] | 0.95 |
| CCN(CC)CCNC(=O)c1cc(Br)c(N)cc1OC [Bromopride] | 0.4 |
| CC[C@H]1OC(=O)[C@H](C)[C@@H](O[C@H]2C[C@@](C)(OC)[C@@H](O)[C@H](C)O2)[C@H](C)[C@@H](O[C@@H]2O[C@H](C)C[C@H](N(C)C)[C@H]2O)[C@](C)(O)C[C@@H](C)/C(=N\OCOCCOC)[C@H](C)[C@@H](O)[C@]1(C)O [roxithromycin] | 0.78 |
| CC(C(=O)O)c1ccc2oc(-c3ccc(Cl)cc3)nc2c1 (centres unmarked) [benoxaprofen] | 0.99 |
| O=C(O)[C@H]1/C(=C/CO)O[C@@H]2CC(=O)N21 [clavulanate] | 0.23 |
| CCN(CC)C(=O)C1(c2ccccc2)CC1CN (centres unmarked) [milnacipran] | 0.13 |
| CN(C)CCN(C)N1C=C(c2ccccc2)C2C=CC=CC21 (centres unmarked) [Binedaline] | 0.96 |
| CC(C)CN(C[C@@H](O)[C@H](Cc1ccccc1)NC(=O)O[C@H]1CCOC1)S(=O)(=O)c1ccc(N)cc1 [amprenavir] | 0.9 |

same assay, conditions: fraction bound to plasma protein; small molecule dataset, sheet 1-SM, Set Dtr; ref Ingle et al.; cited from earlier work

| Compound | PPB (fb) |
| --- | --- |
| OCC(CO)N[C@H]1C[C@](O)(CO)[C@@H](O)[C@H](O)[C@H]1O [voglibose] | 0.14 |
| COc1cccc(OC)c1C(=O)N[C@@H]1C(=O)N2[C@@H]1SC(C)(C)[C@@H]2C(=O)O [Methicillin] | 0.48 |
| CC(=O)N(CC(O)CO)c1c(I)c(C(=O)NCC(O)CO)c(I)c(C(=O)NCC(O)CO)c1I (centres unmarked) [Iohexol] | 0.02 |
| C=CC(N)CCC(=O)O (centres unmarked) [vigabatrin] | 0 |
| O=C(c1ccccc1)c1ccc2n1CCC2C(=O)O (centres unmarked) [Ketorolac] | 0.99 |
| C[C@]12C=CC(=O)C=C1CC[C@@H]1[C@@H]2[C@@H](O)C[C@@]2(C)[C@H]1CC[C@]2(O)C(=O)CO [Prednisolone] | 0.81 |

same assay, conditions: fraction bound to plasma protein; small molecule dataset, sheet 1-SM; ref Ingle et al.; cited from earlier work

| Compound | PPB (fb) |
| --- | --- |
| CC(/C=C1\SC(=S)N(CC(=O)O)C1=O)=C\c1ccccc1 [Epalrestat] | 0.9 |
| COC(C(=O)NC1C(=O)N2C1SC(C)(C)C2C(=O)O)c1ccc(Cl)c(F)c1 (centres unmarked) [penicillin44] | 0.83 |
| N[C@@H]1[C@H]2CN(c3nc4c(cc3F)c(=O)c(C(=O)O)cn4-c3ccc(F)cc3F)C[C@@H]12 [Trovafloxacin] | 0.81 |
| COc1ccc2c(c1)C(=O)N(CCc1ccc(S(=O)(=O)NC(=O)NC3CCCCC3)cc1)C(=O)C2(C)C [gliquidone] | 0.99 |
| COc1c2occc2cc2ccc(=O)oc12 [methoxsalen] | 0.83 |
| C#C[C@]1(O)CC[C@H]2[C@@H]3CCC4=CC(=NO)CC[C@@H]4[C@H]3CC[C@@]21CC (mixture of isomers) [norelgestromin] | 0.97 |
| CC(C)=CCC1C(=O)N(c2ccccc2)N(c2ccccc2)C1=O [feprazone] | 0.95 |
| CCC(CC)OCC(=O)NC1C(=O)N2C1SC(C)(C)C2C(=O)O (centres unmarked) [penicillin8] | 0.47 |
| C[C@]1(Cn2ccnn2)[C@H](C(=O)O)N2C(=O)C[C@H]2S1(=O)=O [tazobactam] | 0.23 |
| CCOC(=O)[C@H](CCc1ccccc1)N[C@@H](C)C(=O)N1Cc2ccccc2C[C@H]1C(=O)O [quinapril] | 0.97 |
| CO/N=C1\CN(c2nc3c(cc2F)c(=O)c(C(=O)O)cn3C2CC2)CC1CN (centres unmarked) [Gemifloxacin] | 0.64 |
| NC(=O)c1cnccn1 [Pyrazinamide] | 0.1 |
| COc1cnc2ccccc2c1C(=O)NC1C(=O)N2C1SC(C)(C)C2C(=O)O (centres unmarked) [penicillin76] | 0.57 |
| CCC1(C)CC(=O)NC1=O (centres unmarked) [ethosuximide] | 0 |
| CC1(C)S[C@@H]2[C@H](NC(=O)[C@H](C(=O)O)c3ccsc3)C(=O)N2[C@H]1C(=O)O [Ticarcillin] | 0.51 |
| CCN(CC)CCNC(=O)c1ccc(NS(C)(=O)=O)cc1 [Sematilide] | 0.04 |
| CC1(C)SC2C(NC(=O)COc3ccccc3F)C(=O)N2C1C(=O)O (centres unmarked) [penicillin52] | 0.91 |

same assay, conditions: human, plasma; cited from earlier work

| Compound | PPB (fb) |
| --- | --- |
| CCNC(=O)[C@@H]1CCCN1C(=O)[C@H](CCCNC(=N)N)NC(=O)[C@H](CC(C)C)NC(=O)[C@@H](COC(C)(C)C)NC(=O)[C@H](Cc1ccc(O)cc1)NC(=O)[C@H](CO)NC(=O)[C@H](Cc1c[nH]c2ccccc12)NC(=O)[C@H](Cc1cnc[nH]1)NC(=O)[C@@H]1CCC(=O)N1 [buserelin] | 0.15 |

same assay, conditions: plasma; cited from earlier work

| Compound | PPB (fb) |
| --- | --- |
| Anidulafungin [reference compound] | 0.84 |
| Eptifibatide [reference compound] | 0.25 |
| Oxytocin [reference compound] | 0 |
| Vancomycin [reference compound] | 0.37 |
| Quinupristin [reference compound] | 0.66 |
| Micafungin [reference compound] | 1 |
| cefotiam | 0.4 |
| acenocoumarol | 0.98 |
| CCOC(=O)C1(c2ccccc2)CCN(CCC(O)c2ccccc2)CC1 (centres unmarked) [phenoperidine] | 0.8 |
| Cefoperazone | 0.92 |
| CCCCCc1cc(O)c2c(c1)OC(C)(C)C1CCC(C)=CC21 (centres unmarked) [Tetrahydrocannabinol__ D9-] | 0.96 |

tested on: plasma protein; assay: not given; settings: cited from earlier work

| Compound | PPB (fb) |
| --- | --- |
| Eptifibatide [reference compound] | 0.25 |
| Oxytocin [reference compound] | 0.3 |
| Terlipressin | 0.3 |
| Dalbavancin | 0.93 |
| Quinupristin [reference compound] | 0.55-0.78 |
| Teixobactin | 0.84 |

same assay, conditions: fraction bound (0-1); public cyclic peptide drug dataset; ref DrugBank [39]; cited from earlier work

| Compound | PPB (fb) |
| --- | --- |
| Daptomycin | 0.85 |
| Desmopressin | 0.5 |
| Acetyl-Daptomycin | 0.12 |
| Lanreotide | 0.79-0.83 |
| Anidulafungin [reference compound] | 0.99 |
| Caspofungin | 0.97 |
| Romidepsin | 0.92-0.94 |
| Colistin | 0.904-0.929 |
| Vancomycin [reference compound] | 0.55 |
| Dactinomycin | 0.05 |
| Oritavancin | 0.85 |
| Polymyxin?B | 0.559 |
| Telavancin | 0.897 |
| Pasireotide | 0.88 |
| Vasopressin | 0.01 |
| Micafungin [reference compound] | 0.99 |
